What was measured:
L1210 mouse leukemia = test: In vivo antitumor activity against L1210 mouse leukemia (L1210-BDF1 mouse model); set-up: species or system BDF1 mice; conditions: for Optimal dose: L1210 ip/ip, single dose
Protocol: BDF1 mice were purchased from Charles River (Wilmington, MA). Groups of 6-8 mice weighing 18-22 gm were inoculated ip with 1×10^6 L1210 leukemia cells on day 0. L1210 cells were kept in DBA2 mice were weekly passages between the different experiments. All L-PT preparations were injected ip in volumes of 0.1 to 0.3 ml 24 hours after tumor inoculation. Two different schedules of administration were used: a single injection on day 1 or an injection on days 1, 5 and 9 (multiple). […] Clinical behavior and survival times were monitored until all animals had died. Results were expressed as % T/C (median survival time of treated mice/median survival time of control mice ×100) and number of long-term survivors. Mice living more than 30 days and more than 60 days were considered to be long-term survivors for the single and multiple injection schedule respectively. All L-PT preparations tested for antitumor activity were prepared under sterile conditions on the same day of the experiment.
The antitumor activity against L-1210 murine leukemia of the different L-PT analogs was assessed in an L-1210-BDF, mouse model (tumor inoculation day 0, treatment day 1, ip) as described earlier herein.
These liposome-encapsulated compounds were tested to determine their optimal dose and effectiveness as inhibitors of in vivo tumor growth as described in Example 12.

[1] = Stability of L-PT in 0.9% saline at 4° C. for 14 days; type: physicochemical; conditions: for Stability % (PT remaining in the liposomes): 0.9% saline, 4° C., DMPC:DMPG 7:3; for stability compared with Pt cyclopentenecarboxylato-racemic-DACH, in words: saline
Protocol: The stability of the different liposome-PT (L-PT) preparations in 0.9% NaCl solution at 4° C., and 50% human (AB) serum in 0.9% NaCl solution at 37° C. was determined using the following formula: [formula]
The EE values used in the stability determinations were obtained by measuring PT in the supernatants by UV spectrophotometry (0.9% NaCl solution) or x-ray fluorescence (50% human AB serum). The stability in 0.9% NaCl solution was determined up to 14 days after the initial preparation. In addition, the L-PT preparations were observed microscopically on day 14 to check the morphology of the vesicles. The stability in 50% human AB serum was determined up to 18 hours after incubation.
Preparations were suspended in 0.9% saline and incubated at 4° C. for 14 days. The liposome compositions were observed by light microscopy and the amount of free PT in the saline determined. […] Free PT was determined and stability was calculated as the percentage PT remaining in the liposomes.

[2] = Nephrotoxicity: blood urea nitrogen (BUN) 96 hours after ip LD50 dose; type: in vivo, CD1 Swiss mice; conditions: for BUN at 96 hours: ip single injection at LD50 dose
Protocol: All L-PT preparations tested for toxicity were prepared under sterile conditions on the same day of the experiments.

[3] = Acute toxicity (LD10, LD50, LD90) in CD-1 Swiss mice; type: in vivo
Protocol: Toxicology studies were carried out in 6-8 weeks old CD-1 Swiss mice weighing 22-25 gm and purchased from The University of Texas Science Park (Bastrop, TX). Free PT in suspension in hydroxypropylcellulose, DMPG, DMPG-PT, DMPC:DMPG 7:3 and DMPC:DMPG 7:3-PT were administered intraperitoneally (ip) in volumes ranging between 0.1 and 0.3 ml. DMPC:DMPG 7:3-PT was also administered intravenously (iv) in one single injection or in 3 daily injections. The clinical behavior and the survival times were monitored on a daily basis.

L1210 cells = test: In vitro growth inhibition of L1210 leukemic cells (96 hours, Coulter Counter); type: cell-based, murine; conditions: Exp. 1; 5760 min
Protocol: Four ml of cell suspension were added to culture tubes and the appropriate concentration of free PT or L-PT was added (from 0.01 micro g/ml to 10 micro g/ml final concentration). After 96 hours, the cell concentration of control and experimental cultures were calculated with a Coulter Counter (Coulter Electronics, Hialeah, FLA) and the percent inhibition calculated. The following preparations were tested: free PT, DMPG, DMPC:DMPG 7:3, DMPG-PT and DMPC:DMPG 7:3-PT.

[4] = Encapsulation efficiency of platinum complexes in multilamellar liposomes (UV spectrophotometry / x-ray fluorescence); type: physicochemical; conditions: for Encapsulation Efficiency: lipophilic cisplatin analogues incorporated in liposomes (Table 12); for % Encapsulation Efficiency: liposomes DMPC:DMPG 7:3, mean of at least three experiments
Protocol: Multilamellar lipid vesicles (MLV) or liposomes containing incorporated platinum complexes (PT) of the above descriptions were prepared as previously described for other compounds (Lopez-Berestein et al (4)(1984) Clin. Exp. Metastasis V 2 pp 127-137 and Lopez-Berestein et al (1983) J Inf Dis V 147 pp 937-945). In brief, chloroform solutions of lipids (at the desired molar ratio) and PT were mixed at a lipid-PT ratio of 15:1 and the chloroform was evaporated in a rotary evaporator (Buchi, Brinkmann Instruments, Westbury, NY). The dried lipid film obtained, containing PT, was then dispersed with an aqueous solution (0.9% NaCl in water) by vigorous handshaking. The suspension was subsequently centrifuged at 30,000 ×g for 45 minutes, the supernatant was discarded, and the pellet containing PT was resuspended in 0.9% NaCl solution.
Elemental platinum (Pt) was determined in the liposome suspension and the pellet by x-ray fluorescence as previously reported (Seifert et al (1979) Proc. Amer. Ass'n. Cancer Res. V 20 p. 168) in the Department of Analytical Chemistry, The University of Texas Medical School at Houston, TX. The amount of platinum complex (PT) was determined in the supernatant by ultraviolet (UV) spectrophotometry using a wavelength of 224 nm. The EE was initially calculated with the two following formulas:
1. EE =Pt in pellet/total Pt in the initial liposome suspension
2. EE =Total Pt initially added - Pt in supernatant/total Pt initially added
The encapsulation efficiency for Pt-cyclopentenecarboxylato racemic-DACH was 66%. […] The encapsulation efficiency for Pt-neodecanoato-racemic-DACH, Pt-neodecanoatotrans-RR-DACH, Pt-n-decyliminodiacetato racemic DACH complexes are presented in Table I, shown below.
The compounds prepared in Examples 14-19 were tested for their efficiency of encapulation in liposomes by the methods described in Example 6. These liposome-encapsulated compounds were tested to determine their optimal dose and effectiveness as inhibitors of in vivo tumor growth as described in Example 12. The data in Table 12 reveal the resultant measurements.

[5] = Solubility in organic solvents and water; type: physicochemical; conditions: for solubility in methanol and chloroform, in words: chloroform (and other organic solvents where stated)
[6] = 25 mg/kg ip day 1, liposomes DMPC:DMPG 7:3 (Table 8)
[7] = L1210 ip/ip single dose at the optimal dose, incorporated in liposomes (Table 12)
[8] = incorporated in liposomes (Table 12)

| Molecule | % T/C (L1210 mouse leukemia; [6]) [%] | Stability % (PT remaining in the liposomes) [1] [%] | % T/C (L1210 mouse leukemia; [7]) [%] | Optimal dose (L1210 mouse leukemia; [8]) [mg/kg] | Encapsulation Efficiency [4] [%] | solubility in methanol and chloroform, in words [5] | solubility in water, in words [5] | also measured |
| --- | --- | --- | --- | --- | --- | --- | --- | --- |
| CCCCCCCCCCN1CC(=O)[O][Pt]2([NH]C3CCCCC3[NH]2)[O]C(=O)C1 (mixture of isomers) [Pt-N-decyliminodiaceto-racemic-DACH mixture, cis-bis-n-decyliminodiaceto-DACH-platinum (II)] | 150 | 100 | – | – | – | – | – | – |
| O=C([O][Pt]1([O]C(=O)C2=CCCC2)[NH]C2CCCCC2[NH]1)C1=CCCC1 (mixture of isomers) [Pt-cyclopentenecarboxylato racemic-DACH mixture, cis-bis-cyclopentenecarboxylato-1,2-DACH-platinum (II)] | 213 | 89 | – | – | – | – | – | BUN at 96 hours ([2]; listed as Free PT): 34.4 ± 9.6 mg %; BUN at 96 hours ([2]; listed as PT in suspension in hydroxypropylcellulose): 34.4±9.6 mg %; BUN elevation, in words ([2]; ip, LD50 dose, 96 hours): no significant BUN elevations; LD50 Dose ([3]; ip single injection (Table 4, CD1 mice), 20160 min): 91 mg/kg; LD10 ([3]; ip × 1): 61 mg/kg; LD90 ([3]; ip × 1): 125 mg/kg; LD50 ([3]; ip × 1, 20160 min): 91 mg/kg; ID50 (L1210 cells): 1.3 micro g/ml; % T/C (L1210 mouse leukemia; 6.25 mg/kg × 3 ip, days 1, 5 and 9): 168%; % T/C, mean (L1210 mouse leukemia; 12.5 mg/kg and 25 mg/kg, single ip dose, means of three experiments): 162%; % T/C (L1210 mouse leukemia; 12.5 mg/kg ip day 1, Exp. 1): 173%; % T/C (L1210 mouse leukemia; 12.5 mg/kg ip day 1, Exp. 2): 136%; % T/C (L1210 mouse leukemia; 12.5 mg/kg ip day 1, Exp. 3): 179%; % T/C (L1210 mouse leukemia; 12.5 mg/kg × 3 ip, days 1, 5 and 9): 284%; % T/C (L1210 mouse leukemia; 25 mg/kg ip day 1, Exp. 3): 168%; % T/C (L1210 mouse leukemia; 25 mg/kg × 3 ip, days 1, 5 and 9): 158% |
| CCCCCCCCCCN1CC(=O)[O][Pt]2([NH][C@@H]3CCCC[C@H]3[NH]2)[O]C(=O)C1 [Pt-N-decyliminodiacetato-trans-RR-DACH, cis-bis-n-decyliminodiacetato-trans-RR-DACH-Pt (II)] | 162 | 100 | – | – | – | – | – | – |
| O=C([O][Pt]1([O]C(=O)C2=CCCC2)[NH][C@@H]2CCCC[C@H]2[NH]1)C1=CCCC1 [Pt-cyclopentenecarboxylato trans-RR-DACH, cis-bis-cyclopentenecarboxylato-1,2-trans-RR-DACH-Pt (II)-3H2 O] | 187 | 94 | – | – | – | – | – | stability compared with Pt cyclopentenecarboxylato-racemic-DACH, in words [1]: greater stability |
| O=C([O][Pt]1([O]C(=O)C2=CCCC2)[NH][C@H]2CCCC[C@@H]2[NH]1)C1=CCCC1 [Pt-cyclopentenecarboxylato trans-SS-DACH] | 155 | – | – | – | – | – | – | – |
| CCCCCCCCCC(=O)[O][Pt]1([O]C(=O)CCCCCCCCC)[NH][C@@H]2CCCC[C@H]2[NH]1 [cis-bis-decanoato-trans-R,R-1,2-diaminocyclohexane-platinum II] | – | – | 187 | 50 | – | – | – | – |
| Cis-bis-neodecanoato-trans-R,R-1,2-diaminocyclohexane-platinum | – | – | 170 | 25 | 93 | – | – | – |
| cis-bis-neodecanoato-RR-DACH-Platinum (II) [Pt-neodecanoato-trans-RR-DACH] | 175 | 99 | – | – | – | – | – | % Encapsulation Efficiency [4]: 99% |
| cis-bis-neodecanoato-bis-cyclohexylamine-platinum (II) | – | – | 125 | 100 | 89 | highly soluble | insoluble | – |
| cis-bis-neodecanoato-bis-diamine-platinum (II) | – | – | 200 | 50 | 95 | highly soluble | insoluble | – |
| cis-bis-neodecanoato-bis-isopropylamine-platinum (II) | – | – | 150 | 100 | 87 | highly soluble | insoluble | – |
| cis-bis-neodecanoato-ethylenediamine-platinum(II) | – | – | 144 | 75 | – | – | – | – |
| cis-bis-neodecanoatoDACH-platinum II [Pt-neodecanoato-racemic DACH-mixture] | – | 100 | – | – | – | highly soluble | insoluble | % Encapsulation Efficiency [4]: 99%; % T/C (L1210 mouse leukemia; 50 mg/kg ip day 1, liposomes DMPC:DMPG 7:3 (Table 8)): 187%; stability compared with Pt cyclopentenecarboxylato-racemic-DACH, in words [1]: greater stability |

From patent US5041581A (priority 1986, dated 1991)
